The target of data set [1] is Platelet-derived growth factor receptor beta (Homo sapiens) (UniProt P09619). Briefly: Inhibition of human recombinant PDGFR-beta expressed in insect cells using Ulight-Poly GAT[EAY(1:1:1)] as substrate at 1 uM after 15 to 60 mins by fluorescence assay.
The target of data set [2] is Epidermal growth factor receptor (Homo sapiens) (UniProt P00533). Kind of data set: Inhibition of human recombinant EGFR expressed in insect cells using Ulight-CAGAGAIETDKEYYTVKD as substrate at 1 uM after 15 to 60 mins by fluorescence assay.
Data set [3] can be described thus: Ratio of cytotoxicity against human EAhy926 cells to antiangiogenic activity in VEGF-stimulated human EAhy926 cells. Type of data set: toxicity, cell-based.
A further data set concerns EA.hy 926. Briefly: Antiangiogenic activity in VEGF-stimulated human EAhy926 cells assessed as inhibition of tube formation at 0.3 uM measured at 24 hrs. Type of data set: functional, cell-based.
Data set [4] can be described thus: Cytotoxicity against human EAhy926 cells assessed as growth inhibition by MTT assay. Type of data set: cell-based. Conditions: EA.hy 926.
For another data set, the system named is HepG2. Kind of data set: Cytotoxicity against human HepG2 cells assessed as growth inhibition by MTT assay. The format is cell-based. (In general: Tetrazolium dyes change colour on reduction, which living cells bring about.)
A short description of data set [5]: Cytotoxicity against human H460 cells assessed as growth inhibition by MTT assay. The note with it: NCI-H460. Type of data set: cell-based.
The test system of the next data set is MCF7. Kind of data set: Cytotoxicity against human MCF7 cells assessed as growth inhibition by MTT assay. The format is cell-based.
For another data set, the system named is HeLa. Kind of data set: Cytotoxicity against human HeLa cells assessed as growth inhibition by MTT assay. The format is cell-based.
Data set [6] addresses Vascular endothelial growth factor receptor 2 (Homo sapiens, UniProt P35968). Briefly: Inhibition of human recombinant VEGFR2 expressed in insect cells using Ulight-CAGAGAIETDKEYYTVKD as substrate after 15 to 60 mins by fluorescence assay.
Another data set has as its system HUVEC. Briefly: Cytotoxicity against HUVEC by MTT assay. Conditions: Homo sapiens.

The values that follow come from ChEMBL document CHEMBL2380250, “Novel VEGFR-2 kinase inhibitors identified by the back-to-front approach” (Bioorg Med Chem Lett, 2013).

What is called IC50 is the point on the concentration scale where inhibition reaches its midpoint.

Each structure is given as a SMILES string. Calls of active or inactive are those of the source. The rule behind the calls is not given here. Where only a bound is given, the exact number is not on record here.

Epidermal growth factor receptor (Homo sapiens), sequence (P00533 whole entry): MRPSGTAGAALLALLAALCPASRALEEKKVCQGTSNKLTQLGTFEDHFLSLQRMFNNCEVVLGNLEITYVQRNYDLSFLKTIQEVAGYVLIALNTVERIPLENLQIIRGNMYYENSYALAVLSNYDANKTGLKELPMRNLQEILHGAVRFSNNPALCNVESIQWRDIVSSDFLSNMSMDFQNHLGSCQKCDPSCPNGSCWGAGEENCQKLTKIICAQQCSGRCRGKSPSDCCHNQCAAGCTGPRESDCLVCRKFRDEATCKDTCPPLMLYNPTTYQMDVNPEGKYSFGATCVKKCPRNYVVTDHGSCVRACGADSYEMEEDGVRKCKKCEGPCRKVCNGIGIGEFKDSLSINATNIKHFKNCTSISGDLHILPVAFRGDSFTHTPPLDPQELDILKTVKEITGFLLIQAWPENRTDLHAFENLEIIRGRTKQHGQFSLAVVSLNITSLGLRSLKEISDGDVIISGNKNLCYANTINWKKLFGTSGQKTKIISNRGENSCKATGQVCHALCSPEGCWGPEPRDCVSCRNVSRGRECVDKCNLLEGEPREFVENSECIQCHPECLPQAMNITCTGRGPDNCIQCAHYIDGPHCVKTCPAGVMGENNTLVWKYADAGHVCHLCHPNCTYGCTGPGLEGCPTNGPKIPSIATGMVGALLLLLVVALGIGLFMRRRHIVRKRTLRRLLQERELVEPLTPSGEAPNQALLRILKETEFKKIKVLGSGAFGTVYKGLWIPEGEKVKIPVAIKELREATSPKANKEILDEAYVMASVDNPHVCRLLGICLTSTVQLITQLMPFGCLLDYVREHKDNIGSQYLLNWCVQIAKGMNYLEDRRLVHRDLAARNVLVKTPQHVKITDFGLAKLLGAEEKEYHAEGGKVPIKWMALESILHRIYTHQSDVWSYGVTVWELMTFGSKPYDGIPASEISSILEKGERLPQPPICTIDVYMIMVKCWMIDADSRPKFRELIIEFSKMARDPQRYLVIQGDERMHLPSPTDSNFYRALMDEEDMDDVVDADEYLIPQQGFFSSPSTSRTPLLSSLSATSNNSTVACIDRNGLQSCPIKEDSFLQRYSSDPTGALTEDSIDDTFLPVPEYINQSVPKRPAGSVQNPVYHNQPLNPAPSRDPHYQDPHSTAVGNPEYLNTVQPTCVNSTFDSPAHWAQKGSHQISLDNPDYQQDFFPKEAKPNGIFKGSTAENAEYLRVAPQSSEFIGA
Platelet-derived growth factor receptor beta (Homo sapiens), sequence (P09619 whole entry): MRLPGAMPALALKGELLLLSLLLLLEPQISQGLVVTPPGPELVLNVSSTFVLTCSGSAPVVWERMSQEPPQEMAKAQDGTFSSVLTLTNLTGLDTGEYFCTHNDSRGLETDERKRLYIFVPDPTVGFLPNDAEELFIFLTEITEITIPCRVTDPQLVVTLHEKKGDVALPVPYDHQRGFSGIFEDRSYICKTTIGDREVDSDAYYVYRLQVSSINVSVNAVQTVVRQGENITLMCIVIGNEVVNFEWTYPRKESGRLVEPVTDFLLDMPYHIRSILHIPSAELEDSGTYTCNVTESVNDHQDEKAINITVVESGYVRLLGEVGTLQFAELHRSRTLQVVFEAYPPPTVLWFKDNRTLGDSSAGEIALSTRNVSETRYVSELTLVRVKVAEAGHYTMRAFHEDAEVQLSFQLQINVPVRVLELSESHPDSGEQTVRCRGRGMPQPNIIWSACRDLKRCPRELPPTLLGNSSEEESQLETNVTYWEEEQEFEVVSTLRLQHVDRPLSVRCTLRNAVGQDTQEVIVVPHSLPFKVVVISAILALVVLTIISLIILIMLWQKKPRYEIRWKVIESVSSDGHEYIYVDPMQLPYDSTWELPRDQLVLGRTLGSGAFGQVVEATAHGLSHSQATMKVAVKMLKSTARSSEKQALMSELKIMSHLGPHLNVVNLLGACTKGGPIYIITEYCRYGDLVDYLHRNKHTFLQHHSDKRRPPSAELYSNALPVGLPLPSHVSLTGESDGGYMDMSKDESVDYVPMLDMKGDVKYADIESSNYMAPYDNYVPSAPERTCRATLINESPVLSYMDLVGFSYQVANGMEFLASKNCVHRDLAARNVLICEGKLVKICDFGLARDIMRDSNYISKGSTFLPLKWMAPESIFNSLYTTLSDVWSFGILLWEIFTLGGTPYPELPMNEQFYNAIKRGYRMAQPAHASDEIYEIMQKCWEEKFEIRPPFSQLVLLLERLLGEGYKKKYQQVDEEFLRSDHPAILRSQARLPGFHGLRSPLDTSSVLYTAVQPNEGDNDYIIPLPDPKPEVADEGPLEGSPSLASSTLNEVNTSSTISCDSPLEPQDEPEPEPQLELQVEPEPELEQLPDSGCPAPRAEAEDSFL
Vascular endothelial growth factor receptor 2, sequence (P35968 whole entry): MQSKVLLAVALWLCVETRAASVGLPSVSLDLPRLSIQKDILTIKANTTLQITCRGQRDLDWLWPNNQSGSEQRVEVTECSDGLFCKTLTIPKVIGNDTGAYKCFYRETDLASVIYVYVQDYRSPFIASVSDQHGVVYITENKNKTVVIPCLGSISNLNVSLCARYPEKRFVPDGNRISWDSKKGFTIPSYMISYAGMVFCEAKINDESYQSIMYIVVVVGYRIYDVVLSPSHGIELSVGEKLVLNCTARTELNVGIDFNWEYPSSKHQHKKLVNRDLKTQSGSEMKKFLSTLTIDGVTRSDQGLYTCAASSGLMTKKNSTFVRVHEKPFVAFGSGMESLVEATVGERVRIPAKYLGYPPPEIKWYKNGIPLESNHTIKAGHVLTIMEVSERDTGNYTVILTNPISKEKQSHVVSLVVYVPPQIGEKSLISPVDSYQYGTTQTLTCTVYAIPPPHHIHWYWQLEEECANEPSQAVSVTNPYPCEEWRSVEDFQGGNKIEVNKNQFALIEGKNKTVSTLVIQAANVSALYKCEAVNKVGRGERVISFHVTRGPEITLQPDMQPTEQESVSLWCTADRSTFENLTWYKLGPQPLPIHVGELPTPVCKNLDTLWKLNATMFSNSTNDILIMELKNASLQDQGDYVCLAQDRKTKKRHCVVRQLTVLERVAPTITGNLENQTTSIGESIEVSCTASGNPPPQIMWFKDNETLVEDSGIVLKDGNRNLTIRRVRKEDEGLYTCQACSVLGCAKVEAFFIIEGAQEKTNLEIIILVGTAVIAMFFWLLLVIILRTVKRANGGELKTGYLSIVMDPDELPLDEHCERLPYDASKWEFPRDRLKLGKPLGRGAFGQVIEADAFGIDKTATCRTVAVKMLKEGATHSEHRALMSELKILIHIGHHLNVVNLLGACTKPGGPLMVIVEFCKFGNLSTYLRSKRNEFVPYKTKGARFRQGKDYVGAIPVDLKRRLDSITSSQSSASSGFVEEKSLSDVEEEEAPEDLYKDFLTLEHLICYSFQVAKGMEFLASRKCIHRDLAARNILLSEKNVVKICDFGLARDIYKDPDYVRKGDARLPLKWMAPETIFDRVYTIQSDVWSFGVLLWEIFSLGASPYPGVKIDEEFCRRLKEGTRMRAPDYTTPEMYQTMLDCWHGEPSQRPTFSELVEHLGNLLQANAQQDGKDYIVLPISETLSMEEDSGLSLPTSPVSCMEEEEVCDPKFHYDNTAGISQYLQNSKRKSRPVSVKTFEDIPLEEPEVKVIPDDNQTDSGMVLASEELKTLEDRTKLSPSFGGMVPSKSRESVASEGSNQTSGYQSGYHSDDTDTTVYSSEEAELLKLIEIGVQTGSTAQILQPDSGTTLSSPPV

In the case of `O=C(NCc1cn(-c2ccc3ncsc3c2)nn1)Nc1cccc(CCl)c1`, the inhibition entry in [1] was “inactive”. Also, in [2], the inhibition entry was “Active”.
For `CC(=O)N1CCc2ccc(-n3cc(CNC(=O)Nc4cccc(CCl)c4)nn3)cc21`, in that order: “inactive” and “Active”.
For the molecule `O=C(NCc1cn(-c2ccc3cn[nH]c3c2)nn1)Nc1cccc(CCl)c1`, in data set [3], the selectivity ratio was 13. The inhibition entry (in the data set on EA.hy 926; in data set [2]) was “Active” in each case. In addition, the IC50 is 4 µM in data set [4]; more than 100 µM with HepG2; 71 µM in [5]; 21 µM with MCF7; 33 µM in the data set on HeLa; 0.56 µM in [6]. For the same molecule, the inhibition entry in [1] is “inactive”.
As for `O=C(NCc1cn(-c2ccc3scnc3c2)nn1)Nc1cccc(CCl)c1`, the inhibition entry in data set [1] was “inactive”. Also, in data set [2], the inhibition entry is “Active”.
As to `O=C(NCc1cn(CCN2C(=O)c3ccccc3C2=O)nn1)Nc1cccc(CCl)c1`, the inhibition entry in data set [1] was “inactive”. For the same molecule, the inhibition result in data set [2] was “Active”.
Taken in the same sequence, the figures for `C#CCNC(=O)Nc1cccc(CCl)c1` were “inactive” and “Active”.
In the case of `O=C(NCc1cn(Cc2cc(=O)[nH]c3ccccc23)nn1)Nc1cccc(CCl)c1`, the inhibition entry in data set [1] is “inactive”. In addition, the inhibition result in data set [2] is “Active”.
Taken in the same sequence, the figures for `O=C(NCc1cn(-c2ccc3[nH]ncc3c2)nn1)Nc1cccc(CCl)c1` were “inactive” and “Active”.
Taken in the same sequence, the figures for `NS(=O)(=O)c1ccc(-n2cc(CNC(=O)Nc3cccc(CCl)c3)nn2)cc1` were “inactive” and “Active”.
For `O=C(NCc1cn(-c2ccc(S(=O)(=O)N3CCOCC3)cc2)nn1)Nc1cccc(CCl)c1`, in that order: “inactive” and “Active”.
`COC(=O)c1ccc(-n2cc(CNC(=O)Nc3cccc(CCl)c3)nn2)cc1`: in data set [1], the inhibition entry was “inactive”. Besides, the inhibition result in data set [2] was “Active”.
For `NS(=O)(=O)c1cccc(-n2cc(CNC(=O)Nc3cccc(CCl)c3)nn2)c1`, in that order: “inactive” and “Active”.
For the molecule `CNC(=O)c1cc(Oc2ccc(NC(=O)Nc3ccc(Cl)c(C(F)(F)F)c3)cc2)ccn1` [SORAFENIB], in the data set on HUVEC, the IC50 is 4 µM.
